Assay results reported in patent publication EP0297435A2, “Aminopropanol derivatives of 3-(3'-hydroxyphenyl)-1-propanone, process for their preparation and medicines containing these compounds” (Helopharm W. Petrik GmbH & Co.KG., priority 1987, dated 1989).

Legend:
[1] = test system: Meerschweinchen-Papillarmuskel; assay: Effect on contraction force of the heart, guinea pig papillary muscle; assay type: cell-based; details: contraction force (negative inotropy), read-out: C20 CF
Source text: Die Wirkung auf die Kontraktionskraft des Herzens wurde am Meerschweinchen-Papillarmuskel untersucht. Hämodynamische Studien wurden bei gesunden, wie auch akut infarzierten Hunden durchgeführt.

[2] = test system: Purkinje-Fasern aus Hundeherzen; assay: Electrophysiological studies on Purkinje fibres from dog hearts (Vmax); assay type: cell-based, Hund
Source text: Die antiarrhythmische Wirksamkeit der erfindungsgemäßen Verbindungen wurde sowohl anhand von elektrophysiologischen Studien an Purkinje-Fasern aus Hundeherzen sowie mit Hilfe von Ouabaininduzierten ventrikulären Tachykardien bei Hunden bestimmt. […]
Als zusätzliches Kriterium wurde der Vorzeitigkeitsindex (Prematurity-Faktor) bestimmt, der die erwünschte Wirksamkeit der erfindungsgemäßen Verbindungen bei vorzeitigen Extrasystolen charakterisiert.

[3] = Acute toxicity LD50 in rats, i.v.; details: rat, in vivo, iv; Ratte (i.v.); read-out: LD₅₀
[4] = Acute toxicity LD50 in mice, i.v.; details: mouse, in vivo, iv; Maus (i.v.); read-out: LD₅₀

Which IC20 [1] does the source give for `CCC(C)(C)NCC(O)COc1cc(CCC(=O)c2cc(OC)c(OC)c(OC)c2)ccc1OC.Cl` (centres unmarked) [Beispiel 28, 1-(3,4,5-Trimethoxyphenyl)-3-[3′-(2-hydroxy-3-tert.-pentylaminopropoxy)-4′-methoxyphenyl]-1-propanon-hydrochlorid] here?
Its IC20 is 6 µM.

What about the IC20 ([2]; Purkinje-Fasern aus Hundeherzen, read-out: C20 Vmax) of the same compound?
Its IC20 is 1.4 µM.

What about the “Prematurity Faktor Vmax” value ([2]; Vorzeitigkeitsindex, activity on premature extrasystoles) of the same compound?
The value was 1,01.

And the LD50 [3]?
Its LD50 is 11 mg/kg.

What about the LD50 [4] of the same compound?
Its LD50 is 16 mg/kg.
